“And” between values parts separate entries of the source, which are not always exact repeats. Identical values can stand only once.
Tests used:
DU 145 cells = test: 72 h GI50 assay in DU 145; details: read-out: DU 145 GI50; 72 h growth inhibition
LNCaP cells = test: 72 h GI50 assay in LNCaP; details: read-out: LNCaP GI50; 72 h growth inhibition
[1] = test system: TC-71 Ewing sarcoma cells (EWS-FLI1 Type 1); details: 72 h growth inhibition
[2] = test system: A-673 Ewing sarcoma cells (EWS-FLI1 Type 1); test: 72 h GI50 assay in A-673; details: read-out: A-673 EWS-FLI1 Type 1 GI50; 72 h growth inhibition
[3] = test system: PC-3 (prostate cancer, no ETS translocation) cell line; test: 72 h growth inhibition (GI50) assay in PC-3; details: read-out: PC-3 Prostate cancer No ETS Translocation GI50; 72 h growth inhibition, PC-3 cells
[4] = test system: ES-8 Ewing sarcoma cells (EWS-FLI1 Type 2); test: 72 h GI50 assay in ES-8; details: read-out: ES-8 EWS-FLI1 Type 2 GI50; 72 h growth inhibition
[5] = test system: ES-2 Ewing sarcoma cells (EWS-FLI1 Type 3); test: 72 h GI50 assay in ES-2; details: read-out: ES-2 EWS-FLI1 Type 3 GI50; 72 h growth inhibition
A549 cells = test: 72 h GI50 assay in A549; details: read-out: A549 GI50; 72 h growth inhibition
[6] = test system: VCaP prostate cancer cells (TMPRSS2-ERG); test: 72 h GI50 assay in VCaP; details: for GI50: read-out: VCaP Prostate Cancer TMPRSS2-ERG GI50, 72 h growth inhibition, VCaP cells; for Ratio of median GI50 Prostate cells lacking TMPRSS2-ERG:VCaP: selectivity for VCaP over other prostate cancer cell lines
[7] = test system: Ewing sarcoma cell lines (TC-32, 5838, RD-ES, TC-71, A-673, ES-2, ES-7, ES-8); test: Median GI50 in panel of Ewing sarcoma cell lines; details: for Ratio of Median GI50 non-Ewing sarcoma:Ewing sarcoma (Selectivity Index): median GI50 non-Ewing panel over Ewing panel; for GI50: read-out: Median GI50 in Ewing sarcoma cell lines, median over 8 Ewing sarcoma cell lines, 72 h; for Selectivity Index ratio Analogues:MTM (1): selectivity index relative to MTM (1)
PANC-1 cells = test: 72 h GI50 assay in PANC-1; details: read-out: PANC-1 GI50; 72 h growth inhibition
[8] = test system: ES-7 Ewing sarcoma cells (EWS-FLI1 Type 4); test: 72 h GI50 assay in ES-7; details: read-out: ES-7 EWS-FLI1 Type 4 GI50; 72 h growth inhibition
[9] = test system: RD-ES Ewing sarcoma cells (EWS-FLI1 Type 2); test: 72 h GI50 assay in RD-ES; details: read-out: RD-ES EWS-FLI1 Type 2 GI50; 72 h growth inhibition
HeLa cells = test: 72 h GI50 assay in HeLa; details: read-out: HeLa GI50; 72 h growth inhibition
[10] = test system: 5838 Ewing sarcoma cells (EWS-ERG); test: 72 h GI50 assay in 5838; details: for GI50: read-out: 5838 Ewing Sarcoma EWS-ERG GI50, 72 h growth inhibition, 5838 cells; for Ratio of median GI50 Non-Ewing sarcoma cell lines (cf Table 3):5838: selectivity for 5838 cells
DMS 114 cells = test: 72 h GI50 assay in DMS 114; details: read-out: DMS 114 GI50; 72 h growth inhibition
[11] = test system: TC-32 (Ewing sarcoma, EWS-FLI1 Type 1) cell line; details: for TC-32 Ewing sarcoma EWS-FLI1 Type 1 GI50: 72 h growth inhibition, TC-32 cells; for GI50 ratio PC-3:TC-32: selectivity, GI50 in PC-3 over GI50 in TC-32
HCT 116 cells = test: 72 h GI50 assay in HCT 116; details: read-out: HCT 116 GI50; 72 h growth inhibition
[12] = test system: prostate cell lines lacking TMPRSS2-ERG; test: Median GI50 in prostate cell lines lacking TMPRSS2-ERG; details: read-out: Median GI50 in prostate cell lines, lacking TMPRSS2-ERG; unit inferred

Structure (SMILES)	GI50 (DU 145 cells) [nM]	GI50 (LNCaP cells) [nM]	TC-71 EWS-FLI1 Type 1 GI50 [1] [nM]	GI50 [2] [nM]	GI50 [3] [nM]	GI50 [4] [nM]	GI50 [5] [nM]	GI50 (A549 cells) [nM]	GI50 [6] [nM]	Ratio of median GI50 Prostate cells lacking TMPRSS2-ERG:VCaP [6]	Ratio of Median GI50 non-Ewing sarcoma:Ewing sarcoma (Selectivity Index) [7]	GI50 [7] [nM]	Selectivity Index ratio Analogues:MTM (1) [7]	GI50 (PANC-1 cells) [nM]	GI50 [8] [nM]	GI50 [9] [nM]	GI50 (HeLa cells) [nM]	GI50 [10] [nM]	Ratio of median GI50 Non-Ewing sarcoma cell lines (cf Table 3):5838 [10]	GI50 (DMS 114 cells) [nM]	also measured
C=CCOc1ccc2[nH]cc(CC(NC(=O)C(OC)C3Cc4cc5cc(OC6CC(OC7CC(O)C(O)C(C)O7)C(O)C(C)O6)c(C)c(O)c5c(O)c4C(=O)C3OC3CC(OC4CC(OC5CC(C)(O)C(O)C(C)O5)C(O)C(C)O4)C(O)C(C)O3)C(=O)OC)c2c1 (stereo not drawn) [Analogue 51]	298	2230	636	272	454	90	5370	1540	485	0.9	1.1	485	0.7	532	1660	843	1710	24	22.2	2840	TC-32 Ewing sarcoma EWS-FLI1 Type 1 GI50 [11]: 53 nM; GI50 ratio PC-3:TC-32 [11]: 8.6; GI50 (HCT 116 cells): 380 nM; GI50 [12]: 454 nM
COC(=O)C(Cc1c[nH]c2ccccc12)NC(=O)C(OC)C1Cc2cc3cc(OC4CC(OC5CC(O)C(O)C(C)O5)C(O)C(C)O4)c(C)c(O)c3c(O)c2C(=O)C1OC1CC(OC2CC(OC3CC(C)(O)C(O)C(C)O3)C(O)C(C)O2)C(O)C(C)O1 (stereo not drawn) [MTMSA-Trp (3), Mithramycin SA-Tryptophan, reference compound]	46	109	57	81	76	99	133	89	60	1.3	2.3 and 1.5	47	1.5	161	32	47	323	6	18.2	151	TC-32 Ewing sarcoma EWS-FLI1 Type 1 GI50 [11]: 16 nM; GI50 ratio PC-3:TC-32 [11]: 4.8; GI50 (HCT 116 cells): 30 nM; GI50 [12]: 76 nM
